Test results published in patent publication US20220332839A1, “USE OF PRG4 TO TREAT CANCER” (Lubris LLC, priority 2019, published 2022).

Tests used:
Assay type in all cases: cell-based, human
CD44 = CD44 protein abundance in MDA-MB-231 cells (immunoblot, immunofluorescence); conditions: for protein abundance of CD44, immunoblotting: 100 pM TGFβ, 100 μg/mL rhPRG4 in the absence or presence of TGFβ; for CD44 immunostaining signal in organoids: 8 day-old organoids, absence or presence of TGFβ
Description: For immunofluorescence analysis of 3D-organoids, 600 MDA-MB-231 cells were grown within 80 μL of 50% Matrigel on top of 80 μL of 33% Matrigel coat in each well of ultra-low attachment 8-well chamber slides (Millipore-Sigma, USA). After DIC imaging on Day 8, the live multicellular structures were fixed with 4% formaldehyde, followed by permeabilization using 0.5% ice-cold Triton X-100 solution and blocking using 10% bovine serum albumin (BSA) in phosphate-buffered saline (PBS). For immunofluorescence analysis of monolayer cell culture, cells were seeded onto wells of a Falcon 8-well chamber culture slides (Corning Incorporated, USA), followed by fixing and permeabilization as described for the 3D cultures, and blocking with 5% BSA and 5% calf serum in PBS. Laminin and CD44 in cells were visualized by subjecting the three-dimensional or monolayer cultures to indirect immunofluorescence using a rat anti-laminin antibody (Abcam, Canada) and rat anti-CD44 antibody (Thermo Fisher, Canada) as the primary antibody, respectively, and Alexa 647-conjugated anti-rat IgG (ThermoFisher, Canada) as the secondary antibody. Actin in cells was visualized by incubating the fixed cultures with tetramethylrhodamine isothiocyanate (TRITC)-conjugated phalloidin (Millipore-Sigma, Canada). The DNA binding dye bisbenzimide (Hoechst 33342; Invitrogen, Canada) was used to detect nuclei. For CD44 knockdown analysis, the vector or CD44 shRNA transfected cells were identified by GFP signal. Immunofluorescence images were captured using an epifluorescence microscope with a 40× objective lens (Olympus Bx WI Confocal Microscope, Canada). Exposure times for laminin, actin, nuclei and GFP-specific signals were kept constant in each experiment. For each condition, 3 colonies/fields per experiment were captured, which were chosen as representative of the stained cells within each slide per experiments. Each experiment was repeated two independent times.
Cells were washed with PBS to remove all growth media. Appropriate volume of TNTE lysis buffer (50 mM Tris, 150 mM NaCl, 1 mM EDTA, 0.5% [v/v] Triton-X-100) containing protease and phosphatase inhibitors, was added to the cell monolayer and incubated at 4° C. under vigorous shaking for 20 minutes. Lysates were then collected in microcentrifuge tubes and centrifuged at 13,000 g for 10 minutes at 4° C. 5 μL of the lysate were subjected to protein concentration determination using Bradford-based protein assays (Bio-Rad Laboratories, Canada). Lysates were boiled for 3 minutes at 95° C. in dithiothreitol (DTT)-containing Laemmli sample buffer. […] Densitometric analyses were performed using Quantity One software (Bio-Rad Laboratories, Canada).

MDA-MB-231 cells = assay: In vitro scratch assay (migration); conditions: 36 h
Description: 5×10^5 MDA-MB-231 cells were seeded in each well of a 12-well tissue culture plate and grown overnight to near confluency in complete growth medium and then overnight serum starved by incubating with 0.2% FBS-containing DMEM medium in a 5% CO2 humidified incubator at 37° C. incubator. […] Scratch closure in each well was followed by imaging the scratch and surrounding cells in each well at 3× objective of a DIC microscope (Olympus IX70) coupled to a digital camera at time 0 h and 36 h after initiating the scratch. Five images were captured along the vertical axis of the scratch for each experimental condition. The width of each scratch was measured at three different positions per image for a total of 15 measurements using ImageJ (National Institutes of Health, USA), and then averaged per experimental condition. The width average at 36 h was subtracted from the width average at 0 h and expressed relative to that at 0 h width for each experimental condition to obtain scratch closure, and expressed as percent scratch closure.

[1] = system: MDA-MB-231 cell-derived organoids; assay: Three-dimensional Matrigel culture, proportion of spherical vs invasive organoids
Description: For three-dimensional culture assays, 50 μl of ice-cooled 33% growth factor-reduced Matrigel (Corning Incorporated, USA) in complete growth medium, consisting of DMEM containing 10% FBS, penicillin, streptomycin and amphotericin B (Invitrogen, Canada), was added per well of a 96-well flat bottom, ultra-low attachment plate (BD Biosciences, Canada) followed by storing the plate for 1 hour in a 5% CO2 humidified incubator at 37° C. to allow formation of a 1 mm-thick Matrigel bed in the well. Next, approximately 400 isolated MDA-MB-231 cells, suspended in 50 μl ice-cooled 50% Matrigel in complete growth medium, were layered on top of the Matrigel bed per well of the 96-well plate and incubated inside 5% CO2 humidified incubator at 37° C. One hour post addition and 37° C. incubation of Matrigel-cells suspension, 50 μl of complete growth medium was added to cover the solidified Matrigel-cells mixture. The following day and, every third day, the three-dimensional cultures received 50 μl of fresh complete growth medium without or with specified reagents as listed in the figure descriptions. On Day 8 of culture, differential interference contrast (DIC) images were captured of 8 representative organoids from each well, using light microscopy at 30× objective (Olympus IX70, Canada). […] Number of smooth surfaced organoids without any protrusions, designated as “spherical” were counted out of eight representative images in each well and then percentage of spherical organoids in each condition were plotted in bar graphs. Each experiment was performed at least three independent times for statistical analyses.

Substance	protein abundance of CD44, immunoblotting (CD44)	CD44 immunostaining signal in organoids (CD44)	scratch closure, TGFβ vs control well (MDA-MB-231 cells; 100 pM TGFβ)	effect of TGFβ on LMWHA-induced invasive growth ([1]; 100 pM TGFβ with LMWHA)	invasive growth of organoids, stimulus alone ([1]; 100 pM TGFβ, LMWHA 10, 100 or 400 μg/mL, 8-day)	scratch closure in the absence or presence of TGFβ (MDA-MB-231 cells; 100 μg/mL rhPRG4)	TGFβ or LMWHA-induced invasive growth, vector control transfected cells ([1]; 100 pM TGFβ or 400 μg/mL LMWHA, 100 μg/mL rhPRG4)	TGFβ-induced invasive growth of organoids ([1]; 100 pM TGFβ, 8-day, rhPRG4 0.1, 10, 100 μg/mL, KI 10 μM, 4-MU 0.5 mM)	LMWHA-induced invasive growth of 4-MU-treated organoids ([1]; 0.5 mM 4-MU, 400 μg/mL LMWHA, 100 μg/mL rhPRG4)	LMWHA-induced invasive growth of organoids ([1]; LMWHA 10-400 μg/mL, 100 μg/mL rhPRG4, KI 10 μM)	TGFβ and LMWHA-induced invasive growth of organoids ([1]; LMWHA 100 or 400 μg/mL, 100 pM TGFβ, CD44 antibody 2.5 μg/mL, rhPRG4 100 μg/mL)	TGFβ-induced invasive growth, rhPRG4 applied to the Matrigel prior to culture ([1]; Matrigel mixed with 100 μg/mL rhPRG4, 100 pM TGFβ)	invasive growth promoted by overexpressed CD44/FLAG ([1]; absence or presence of TGFβ or LMWHA, 100 μg/mL rhPRG4)
TGFβ: recombinant human mature transforming growth factor beta (R&D systems) [reference compound]	promoted the protein abundance of CD44	enhanced the CD44-immnostaining signal	increased the scratch closure process	further enhanced the ability of LMWHA to induce invasive growth	promoted an invasive growth								
rhPRG4: full-length recombinant human PRG4 (lubricin) glycoprotein produced by CHO-M cells; residues 25-1404 of SEQ ID NO:1	reduced the protein abundance of CD44	reduced this signal				significantly delayed the scratch closure process	significantly reversed	drastically repress TGFβ-induced invasiveness	suppressed LMWHA-induced invasive growth	suppressed the ability of LMWHA to promote the invasive growth	suppressed TGFβ and LMWHA-induced invasive growth	sufficient to suppress TGFβ-induced invasive growth	suppressed the ability of overexpressed CD44 to promote invasive growth
